Experimental data taken from US7223759B2, “Antibacterial 3,5-diaminopiperidine-substituted aromatic and heteroaromatic compounds” (Anadys Pharmaceuticals, Inc., priority 2003, dated 2007).

What follows are compounds tested on Escherichia coli (ATCC25922) or Staphylococcus aureus (ATCC25923) (assay: Antibacterial MIC, microdilution method in Mueller-Hinton medium). Settings: Escherichia coli, 18 h, MIC in E. coli or S. aureus; two-fold serial dilutions 64 to 0.5 μg/ml in duplicate; 18 hours of incubation at 35° C.; read-out: Potency (MIC).
Format: cell-based
Procedure, shortened: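 Read after 18 h incubation at 35° C, MIC is the lowest compound level that blocked growth. Compounds were tested in duplicate over 64–0.5 μg/ml two-fold dilutions using Mueller-Hinton microdilution per NCCLS standard.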

| MIC [µg/mL] | Structure (SMILES) |
| --- | --- |
| > 64 | Cc1cc(Cl)ccc1CNc1nc(N2CCCCC2)nc(N2CCCCC2)n1.Cl [N-(4-chloro-2-methyl-benzyl)-44,6-Bis-((3R,5S)-3,5-diamino-piperidin-1-yl)-[1,3,5]triazine-2-amine] |
| < 64 | COc1ccc(Nc2ccc(Nc3nc(N4C[C@H](N)C[C@H](N)C4)nc(N4C[C@H](N)C[C@H](N)C4)n3)cc2)cc1 [N-[4-(4-methoxy-phenylamino)-phenyl]-4,6-Bis-((3R,5S)-3,5-diamino-piperidin-1-yl)-[1,3,5]triazine-2-amine] |
| > 64 | Cl.O=C(CC(=O)N1CCC(n2c(=O)[nH]c3ccccc32)CC1)c1ccc(Nc2nc(N3CCCCC3)nc(N3CCCCC3)n2)cc1 [N-(4-{3-oxo-3-[4-(2-oxo-2,3-dihydro-benzoimidazol-1-yl)-piperidin-1-yl]-propionly}-phenyl)-4,6-Bis-((3R,5S)-3,5-diamino-piperidin-1-yl)-[1,3,5]triazine-2-amine] |
| < 64 | Cl.O=C(CC(=O)c1ccc(Nc2nc(N3CCCCC3)nc(N3CCCCC3)n2)cc1)Nc1ccccc1Cl [N-(2-Chloro-phenyl)-3-{4-[4-(3S,5R)-3,5-diamino-piperidin-1-yl)-6-((R)-3-hydroxy-piperidin-1-yl)-[1,3,5]triazin-2-ylamino]-phenyl}-3-oxo-propionamide] |
| < 64 | Cl.NC1CCCN(c2nc(Nc3ccc(Cl)c(Cl)c3)nc(N3CCCCC3)n2)C1 [(3R,5S)-1-[4-(3-Amino-piperidin-1-yl)-6-(3,4-dichloro-phenylammino)-[1,3,5]triazin-22-yl]-piperidine-3,5-diamine] |
| > 64 | Cl.N[C@@H]1C[C@H](N)CN(c2nc(Nc3ccon3)nc(N3C[C@H](N)C[C@H](N)C3)n2)C1 [N-isoxazol-3-yl-4,6-Bis-((3R,5S)-3,5-diamino-piperidin-1-yl)-[1,3,5]triazine-2-amine] |
| < 64 | N[C@@H]1C[C@H](N)CN(c2nc(Nc3ccc(SC(F)(F)F)cc3)nc(N3C[C@H](N)C[C@H](N)C3)n2)C1 [N-(4-trifluoromethylsulfanyl-phenyl)-4,6-Bis-((3R,5S)-3,5-diamino-piperidin-1-yl)-[1,3,5]triazine-2-amine] |
| > 64 | Cl.N[C@@H]1C[C@@H](N)CN(c2nc(N3CCC4CCCCC4C3)nc(N3C[C@H](N)C[C@H](N)C3)n2)C1 (stereo partly drawn) [2,4-Biss-((3R,5S)-3,5-diamino-piperidin-1-yl)-6-(4-p-tolyl-piperazin-1-yl)-[1,3,5]triazine] |
| < 64 | Cc1ccc(C(=O)Nc2ccc(Nc3nc(N4CCN(c5ccncc5)CC4)nc(N4C[C@H](N)C[C@H](N)C4)n3)cc2O)cc1 [N-{4-[4-((3R,5S)-3,5-Diamino-piperidin-1-yl)-6-(4-pyridin-4-yl-piperazin-1-yl)-[1,3,5]triazin-2-ylamino]-2-hydroxy-phenyl}-4-methyl-benzamide] |
| > 64 | CCN(C)CCNC(=O)c1ccc(NC(=O)CC(=O)c2ccc(Nc3nc(N4CCCCC4)nc(N4CCCCC4)n3)cc2)cc1.Cl [N-(4-{2-[4-(2-diethylamino-ethylcarbamoyl)-phhenylcxarbamoyl]-acetyl}-phenyl)-4,6-Bis-((3R,5S)-3,5-diamino-piperidin-1-yl)-[1,3,5]triazine-2-amine] |

Same assay, conditions: Escherichia coli, 18 h, read-out: Potency (MIC)

| Structure (SMILES) | MIC [µg/mL] |
| --- | --- |
| Cc1cc(=O)oc2cc(Nc3nc(N4C[C@H](N)C[C@H](N)C4)nc(N4C[C@@H](N)[C@@H](N)C4)n3)ccc12 [7-[4-((3R,5S)-3,5-diamino-piperidin-1-yl)-6-((3R,4S)-3,4-diamino-pyrrolidin-1-yl)-[1,3,5]triazin-2-ylamino]-4-methyl-chromen-2-one] | > 64 |
| Cc1ccc(S(=O)(=O)N(Cc2ccccc2)c2ccc(Nc3nc(N4C[C@H](N)C[C@H](N)C4)nc(N4C[C@@H](N)[C@@H](N)C4)n3)cc2O)cc1 [N-Benzyl-N-{4-[4-((3R,5S)-3,5-diamino-piperidin-1-yl)-6-((3R,4S)-3,4-diamino-pyrrolidin-1-yl)-[1,3,5]triazin-2-ylamino]-2-hydroxy-phenyl}-4-methyl-benzenesulfonamide] | < 16 |
| CCN(CC)CCNC(=O)c1ccc(Nc2nc(N3C[C@H](N)C[C@H](N)C3)nc(N3C[C@H](N)C[C@H](N)C3)n2)cc1 [N-[4-(2-diethylamino-ethylcarbamoyl)-phenyl]-4,6-Bis-((3R,5S)-3,5-diamino-piperidin-1-yl)-[1,3,5]triazine-2-amine] | < 64 |
| Cc1ccc(C(=O)Nc2ccc(Nc3nc(N4C[C@H](N)C[C@H](N)C4)nc(N4C[C@@H](N)C[C@@H](O)C4)n3)cc2O)cc1 [N-{4-[4-((3S,5R)-3-Amino-5-hydroxy-piperidin-1-yl)-6-((3R,5S)-3,5-diamino-piperidin-1-yl)-[1,3,5]triazin-2-ylamino]-2-hydroxy-phenyl}-4-methyl-benzamide] | < 64 |
| NC[C@@H]1C[C@H](CN)CN(c2nc(Nc3ccc(NC(=O)c4ccc5ccccc5c4O)cc3)nc(N3C[C@H](N)C[C@H](N)C3)n2)C1 [1-Hydroxy-naphthalene-2-carboxylic acid {4-[4-((3R,5S)-3,5-bis-(aminomethyl)-piperidin-1-yl)-6-((3R,5S)-3,5-diamino-piperidin-1-yl)-[1,3,5]triazine-2-ylamino]-phenyl}-amide] | < 16 |
| COc1nc(Nc2ccc(C(=O)CC(=O)Nc3ccc(F)c(F)c3)cc2)nc(N2C[C@H](N)C[C@H](N)C2)n1 [3-{4-[4-((3R,5S)-3,5-Diamino-piperidin-1-yl)-6-methoxy-[1,3,5]triazin-2-ylamino]-phenyl}-N-(3,4-difluoro-phenyl)-3-oxo-propionamide] | < 16 |
| N[C@@H]1C[C@H](N)CN(c2nc(Nc3ccc(C(=O)CC(=O)Nc4ccc(SC(F)(F)F)cc4)cc3)nc(N3C[C@@H](N)C[C@H]3CO)n2)C1 [3-{4-[4-((2S,4S)-4-Amino-2-hydroxymethyl-pyrrolidin-1-yl)-6-((3R,5S)-3,5-diamino-piperidin-1-yl)-[1,3,5]triazin-2-ylamino]-phenyl}-3-oxo-N-(4-trifluoromethylsulfanyl-phenyl)-propionamide] | < 16 |
| Cc1ccc(C(=O)Nc2cccc(Nc3nc(N4C[C@H](N)C[C@H](N)C4)nc(N4C[C@H](N)C[C@H](N)C4)n3)c2)c(O)c1 [N-[3-(2-hydroxy-4-methyl-benzoylamino)-phenyl]-4,6-Bis-((3R,5S)-3,5-diamino-piperidin-1-yl)-[1,3,5]triazine-2-amine] | < 64 |
| N[C@@H]1C[C@H](N)CN(c2nc(NCCCn3ccnc3)nc(N3C[C@H](N)C[C@H](N)C3)n2)C1 [N-(3-imidazol-1-yl-propyl)-4,6-Bis-((3R,5S)-3,5-diamino-piperidin-1-yl)-[1,3,5]triazine-2-amine] | > 64 |
| N[C@@H]1C[C@H](N)CN(c2nc(Nc3ccc(C(=O)Nc4ccc(SC(F)(F)F)cc4)c(O)c3)nc(N3C[C@H](N)C[C@H](N)C3)n2)C1 [N-[3-hydroxy-4-(4-trifluoromethylsulfanyl-phenylcarbamoyl)-phenyl]-4,6-Bis-((3R,5S)-3,5-diamino-piperidin-1-yl)-[1,3,5]triazine-2-amine] | < 64 |
| N[C@@H]1C[C@H](N)CN(c2nc(Nc3ccc4c(c3)-c3ccccc3C4=O)nc(N3C[C@H](N)C[C@H](N)C3)n2)C1 [N-(9-oxo-9H-fluoren-3-yl)-4,6-Bis-((3R,5S)-3,5-diamino-piperidin-1-yl)-[1,3,5]triazine-2-amine] | < 16 |
| COc1cccc(OC)c1C(=O)Nc1ccc(Nc2nc(N3C[C@H](N)C[C@H](N)C3)nc(N3C[C@H](N)C[C@H](N)C3)n2)cc1O [N-[4-(2,6-dimethoxy-benzoylamino)-3-hydroxy-phenyl]-4,6-Bis-((3R,5S)-3,5-diamino-piperidin-1-yl)-[1,3,5]triazine-2-amine] | < 64 |
| N[C@@H]1C[C@H](N)CN(c2cc(Nc3ccc([N+](=O)[O-])cc3)cc(N3C[C@H](N)C[C@H](N)C3)c2)C1 [(3,5-Bis-((3R,5S)-3,5-diamino-piperidin-1-yl)-phenyl)-(4-nitro-phenyl)-amine] | > 64 |
| Nc1cccc(NC(=O)CC(=O)c2ccc(Nc3nc(N4C[C@H](N)C[C@H](N)C4)nc(N4C[C@H](N)C[C@H](N)C4)n3)cc2)c1 [N-{4-[2-(3-amino-phenylcarbamoyl)-acetyl]-phenyl}-4,6-Bis-((3R,5S)-3,5-diamino-piperidin-1-yl)-[1,3,5]triazine-2-amine] | > 64 |
| Cc1cc(Br)ccc1Nc1nc(N2C[C@H](N)C[C@H](N)C2)nc(N2C[C@H](N)C[C@H](N)C2)n1 [N-(4-bromo-2-methyl-phenyl)-4,6-Bis-((3R,5S)-3,5-diamino-piperidin-1-yl)-[1,3,5]triazine-2-amine] | > 64 |
| Cc1ccc(S(=O)(=O)N(Cc2ccccc2)c2ccc(Nc3nc(N4C[C@H](N)C[C@H](N)C4)nc(N4C[C@@H](N)C[C@H]4CN)n3)cc2O)cc1 [N-{4-[4-((2S,4S)-4-Amino-2-aminomethyl-pyrrolidin-1-yl)-6-((3R,5S)-3,5-diamino-piperidin-1-yl)-[1,3,5]triazin-2-ylamino]-2-hydroxy-phenyl}-N-benzyl-4-methyl-benzenesulfonamide] | < 64 |
| N[C@@H]1C[C@H](N)CN(c2nc(Nc3ccc(C(=O)NCc4ccc5c(c4)OCO5)c(O)c3)nc(N3C[C@H](N)C[C@H](N)C3)n2)C1 [N-{4-[(benzo[1,3]dioxol-5-ylmethyl)-carbamoyl]-3-hydroxy-phenyl}-4,6-Bis-((3R,5S)-3,5-diamino-piperidin-1-yl)-[1,3,5]triazine-2-amine] | < 64 |
| NCCN(CCN)c1nc(Nc2ccc3c(c2)-c2ccccc2C3=O)nc(N2C[C@H](N)C[C@H](N)C2)n1 [3-[4-[Bis(2-amino-ethyl)-amino]-6-((3R,5S)-3,5-diamino-piperidin-1-yl)-[1,3,5]triazin-2-ylamino]-fluoren-9-one] | > 64 |
| N[C@@H]1C[C@H](N)CN(c2nc(Nc3ccc(N4CCOCC4)cc3)nc(N3C[C@H](N)C[C@H](N)C3)n2)C1 [N-(4-morpholin-4-yl-phenyl)-4,6-Bis-((3R,5S)-3,5-diamino-piperidin-1-yl)-[1,3,5]triazine-2-amine] | > 64 |
